Source: US20220218614A1, “IONIZABLE CATIONIC LIPIDS AND LIPID NANOPARTICLES, AND METHODS OF SYNTHESIS AND USE THEREOF” (Tidal Therapeutics, Inc., priority 2020, published 2022)
Entries after “also recorded” stand apart in the source; their conditions may differ.

Legend:
[1] = Apparent pKa of LNPs by TNS fluorescent probe; type: physicochemical; details: LNP made with the named ionizable lipid; pH at 50% of maximum TNS fluorescence
Source text: This example describes the fluorescent dye based method used for measurement of the apparent pKa of the lipid nanoparticles. Apparent pKa determines the nanoparticle surface charge under physiological pH conditions, typically a pKa value in the endosomal pH range (6-7.4) results in LNPs that are neutral or slightly charged at plasma or the extracellular space (pH 7.4) and become strongly positive under acidic endosomal environments. This positive surface charge drives fusion of the LNP surface with negatively charged endosomal membranes resulting in destabilization and rupture of the endosomal compartment and LNP escape into the cytosolic compartment, a critical step in cytosolic delivery of mRNA and protein expression via engagement of the cells ribosomal machinery.
The apparent pKa of LNPs made using ionizable Lipids 2, 5 (synthesized as described in example 1), 6 and 7 (synthesized using method analogous to Lipid 2, 5, respectively, except using diethyl amine instead of dimethyl amine to incorporate the tertiary amine head group) were determined by 6-(p-Toluidino)-2-naphthalenesulfonic acid (TNS) fluorescence measurement in aqueous buffers covering a range of pH values (pH 4-pH 10). TNS is non-fluorescent when free in solution, but which fluoresces strongly when associated with a positively charged lipid nanoparticle. At a pH values below the pKa of the nanoparticle, positive LNP surface charge results in dye recruitment at the particle interface resulting in TNS fluorescence. At pH values above the LNP pKa no fluorescence is observed. The apparent pKa of the LNP is reported as the pH at which the fluorescence is at 50% of its maximum, as determined using a four-point logistic curve fit.

[2] = Zeta potential of LNPs by laser Doppler electrophoresis in 5 mM pH 5.5 MES and 5 mM pH 7.4 HEPES buffer; type: physicochemical; details: pH 5.5 MES and pH 7.4 HEPES buffer
Method: (§1) Samples of the LNPs produced in Example 2 were characterized to determine the average hydrodynamic diameter, zeta potential, and mRNA content (total and dye-accessible). The hydrodynamic diameter was determined by dynamic light scattering (DLS) using a Zetasizer model ZEN3600 (Malvern Pananalytical, UK). The zeta potential was measured in 5 mM pH 5.5 MES buffer and 5 mM pH 7.4 HEPES buffer by laser Doppler electrophoresis using the Zetasizer.

[3] = tested on: primary human T-cells (CD3+ T cells); assay: In vitro LNP transfection of primary human T-cells (GFP, Cy5 or DiI, viability by FACS); type: cell-based
Source text: This example describes the protocol used for in vitro LNP transfections in primary human T-cells. This method is used to assess LNP in vitro efficacy in relevant target cells (CD3+ T cells) by first transfecting the cells using LNPs loaded with mRNA encoding for a reporter gene, such as GFP mRNA, and then assessing transfection by measuring reporter gene expression by fluorescence-[…] cell sorting (FACS). Additionally, particle association with cells may be observed by in the same assay by labeling individual nanoparticle components, such as the mRNA, with a fluorescent dye, such as Cy5, and then observing cell/dye association by FACS.
CD3+ T cells were isolated from frozen peripheral blood mononuclear cells using an EasySep Human T Cell Isolation Kit on a RoboSep automated cell isolation system from […]. T cells were plated into a flat bottom 96-well plate in RPMI cell culture media supplemented with glutamax, 10% fetal bovine serum, and 40 ng/mL IL2. 100 μL of cell suspension was seeded per well at a density of 1M T cells/mL (100K T cells/well). Cells were allowed to rest for two hours in a 37° C. incubator, and then were transfected by gently adding 10 μL of a 22 μg/mL (by mRNA) nanoparticle suspension, resulting in a final mRNA concentration of 2 μg/mL. Cells were gently mixed with a pipette and then incubated for 24 hours in a 37° C. incubator. After incubation the cells were analyzed using an ThermoFisher Attune NXT flow cytometer. Cy5 was detected using a 638 nm laser with 670/14 nm filter. eGFP was detected using a 488 nm laser and a 530/30 nm filter. Data were analyzed using FlowJo software from BD biosciences. FACS data were first gated to exclude doublets and dead cells and then gated for GFP and Cy5. Gates for GFP+ and Cy5+were set such that a control sample (PBS treated T cells) was <0.1% positive.
CD3+ T cells were isolated from frozen peripheral blood mononuclear cells using an EasySep Human T Cell Isolation Kit on a RoboSep automated cell isolation system from […]. T cells were plated into a round bottom 96-well plate in RPMI cell culture media supplemented with glutamax, 10% fetal bovine serum, pen-strep, and 40 ng/mL IL-2. 100 μL of cell suspension was seeded per well at a density of 1M T cells/mL (100K T cells/well). Cells were allowed to rest for two hours in a 37° C. incubator, and then were transfected by gently adding 10 μL of a 22 μg/mL (by mRNA) nanoparticle suspension, resulting in a final mRNA concentration of 2 μg/mL (unless otherwise noted). Cells were gently mixed with a pipette and then incubated for 24 hours in a 37° C. incubator. After incubation the cells were diluted with FACS buffer (BD 554657) and analyzed using a BD Fortessa flow cytometer. Data were analyzed using FlowJo software from BD biosciences.

[4] = Quant-iT RiboGreen RNA assay: dye accessible and total (Triton) mRNA content, encapsulation; type: physicochemical; details: Table 9: Lipid 2 and Lipid 6 LNP
Method: RNA content of the nanoparticles is measured using Thermo Fisher Quant-iT RiboGreen RNA Assay Kit. Dye accessible RNA, which includes both non-incorporated RNA and RNA that is near the surface of the nanoparticle, is measured by diluting the nanoparticles to approximately 1 μg/mL mRNA using HEPES buffered saline, and then adding Quant-iT reagent to the mixture. Total RNA content is measured by diluting the particles to 1 μg/mL mRNA using HEPES buffered saline, disrupting the nanoparticles by heating them to 60° C. for 30 minutes in HEPES buffered saline containing 0.5% Triton, and then adding Quant-It reagent. RNA is quantified by measuring fluorescence at 485/535 nm, and concentration is determined relative to a contemporaneously run RNA standard curve.

[5] = Freeze thaw stability of LNP formulations (storage at 4° C., −80° C. or flash frozen in liquid nitrogen; DLS); type: physicochemical; details: one freeze thaw cycle, relative to 4 C storage
Method: Following the preparation of the targeted LNP formulation, the formulation was split into two portions. One portion was exchanged into 40 mM pH 7.4 HEPES buffer, and the other portion was exchanged into 30 mM pH 7.4 Tris buffer. The buffer exchange was performed using a discontinuous diafiltration method where the LNP formulation sample was transferred into a centrifugal ultrafiltration device with […] MWCO regenerated cellulose membrane (Amicon Ultra-4, MilliporeSigma, Massachusetts, US), then diluted 10-fold with the exchange buffer, and concentrated back to the original volume by centrifuging at 500 rcf. This dilution and concentration step was repeated one additional time. The exchanged LNP samples were then divided into separate aliquots that were mixed with concentrated sodium chloride and sucrose solutions to provide the final freeze-thaw sample formulations. Samples of each freeze-thaw formulation were then stored at 4° C., frozen at −80° C., or flash frozen in liquid nitrogen. The samples were later thawed at room temperature and tested for size by DLS and in vitro T cell transfection.

[6] = Hydrodynamic diameter and polydispersity of LNPs by dynamic light scattering (DLS), Zetasizer; type: physicochemical; details: insertion of anti-CD3 hSP34-PEG2k-DSPE conjugate
Method: as §1

human CD8 T cells = assay: Transfection of human CD8 T cells with Fab-targeted Cy5/GFP mRNA LNPs; type: cell-based; details: Lipid 8 LNP, Cy5/GFP mRNA approximately 2.5 μg/mL, approximately 24 hr, Fab conjugate post-inserted
Method: LNPs were prepared using the mixing process described in Example 6, the buffer exchange process described in Example 21. hSP34 and TRX2 Fab-lipid conjugates generated from methods described in Example 4 and a non-T cell specific anti-HER2 lipid-conjugate (Nellis D F, Ekstrom D L, Kirpotin D B, Zhu J, Andersson R, Broadt T L, Ouellette T F, Perkins S C, Roach J M, Drummond D C, Hong K, Marks J D, Park J W and Giardina S L (2005) Preclinical manufacture of an anti-HER2 scFv-PEG-DSPE, liposome-inserting conjugate. 1. Gram-scale production and purification. Biotechnol Prog 21:205-220) were post-inserted at various densities (SP34 0.6-17 g/mol; TRX2 3-9 g/mol; anti-HER2 17 g/mol) into LNPs containing Lipid 8, Cy5 labeled GFP mRNA and GFP mRNA (1:9 Cy5:GFP mass ratio) by adding conjugate and LNPs together and heating the solution without mixing in a thermal cycler at 60 C for 60 min and cooled to 4° C. for 3-5 min. […] After transfection, LNP binding efficiency (Cy5) and transfection efficiency (GFP) was evaluated by flow cytometry. Supernatants were measured for human IFNγ concentration using a commercially available ELISA kit under manufacturers recommended conditions (R&D Systems Duoset). […]

[7] = theoretical total mRNA 45 μg/mL

Compound | apparent pKa of LNP (TNS) [1] | LNP surface charge (zeta potential), in words [2] | T-cell transfection and cell association after freeze-thaw, in words ([3]; after one freeze thaw cycle, relative to 4 C storage) | GFP protein expression (% GFP+ cells, GFP MFI), in words ([3]; hSP34 targeted LNP with GFP mRNA, 24 hours) | LNP association with cells (% Cy5+/Cy5 MFI or % DiI+/DiI MFI), in words ([3]; hSP34 targeted LNP, 24 hours) | T-cell viability / tolerability, in words ([3]; hSP34 targeted LNP, 24 hours, dose as in the value) | % Dye Accessible mRNA [4] | Measured total (Triton method) mRNA [4, 7] | Ribogreen Dye Accessible mRNA [4, 7] | LNP size and polydispersity after freeze-thaw, in words [5] | change in particle size and PDI upon conjugate insertion [6] | transfection (% GFP+, GFP MFI) and binding (% Cy5+, Cy5 MFI), in words (human CD8 T cells)
CCCCC/C=C\C/C=C\CCCCCCCC(=O)OC[C@H](COC(=O)CCCN(CC)CC)OC(=O)CCCCCCC/C=C\C/C=C\CCCCC [Lipid 6] | ~7 | greater positive surface charge relative to Lipid 12 and 13 | retained function after being subjected to freeze-thaw stress | Dose dependent expression of GFP protein | equally associated with cells | well tolerated by T-cells at all LNP doses tested; also recorded: moderately higher viability at higher dose of 2 μg/mL | 15% | 40 µg/mL | 6 µg/mL | minor changes in particle size distributions after frozen storage at −80 C | significantly greater size distribution changes compared to Lipid 12 and Lipid 13 LNPs; also recorded: moderate changes in particle size and PDI | 
Hu291: anti-CD3 Fab, SEQ ID NO: 4 and 5 |  |  |  |  |  |  |  |  |  |  |  | high levels of % Cy5+ T cells
